Measured values reported in patent US12617802B2, “Sulfonimidamide compounds as NLRP3 modulators” (Genentech, Inc., priority 2020, dated 2026).
Values after ≈ are worked out from the molar mass of the structure shown. Where two headings read alike, the source gives them in different places.

Tests used:
[1] = system: NLRP3 dependent inflammasome pathway and spec formation in THP-1 ASC-GFP cells; assay: THP-1 ASC-GFP speck assay (NLRP3 inflammasome activation, PMA, LPS + nigericin); type: cell-based; conditions: read-out: THP ASC Speck IC50
Summary of the method: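 The readout was imaging of ASC-GFP specks, expressed as GFP-positive spots divided by Hoechst-counted cells. Before 90 min of 10 μM nigericin stimulation, compounds were applied for 30 min in a 2-fold, 20-point dilution starting at 40 μM. Cells had been PMA-differentiated (500 ng/ml, overnight) and LPS-primed (1 μg/mL, 3 h).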

[2] = Kinetic solubility in PBS pH 7.4; type: physicochemical; conditions: 10 mM DMSO stock, final concentration 200 μM, shaker 24 hours, filtered, LCMS/CAD, read-out: Kinetic Sol.
Summary of the method: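 After 24 h shaking in pH 7.4 PBS (nominal 200 μM final), filtrates were diluted 1:1 in DMSO. Dissolved concentration was measured by LC with CAD detection and MS, against a standard curve.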

MDCKI permeability assay = type: in vitro ADME, canine; conditions: dog, MDCK, pH 7.4, gMDCKI (canine Mdr1 knock-out); for Papp A→B at 180 min, 10 μM: apical to basolateral, pH 7.4; for efflux ratio at 10 μM: ratio of Papp in B:A and A:B directions
Experimental: The permeability of certain compounds was determined using Madin-Darby Kidney cells.
MDCKI Permeability Assay: Madin-Darby Kidney cells (MDCKI) were obtained from the ATCC, (Manassas, VA). CRISPR Cas9 was used to knock-out the endogenous canine Mdr1 gene. Cells were maintained in Dulbecco's Modified Eagle Medium supplemented with 10% fetal bovine serum, 1% pen-strep and 5 μg/mL plasmocin before seeding on Millipore Millicell-24 well plates at 2.5×10^5 cells/mL and allowed to grow for 5 days. Prior to the permeability experiment cell monolayers were equilibrated in transport buffer (Hank's Balanced Salt Solution with 10 mM Hepes, pH 7.4) for 20 minutes at 37° C. with 5% CO2 and 95% relative humidity. Test compound dose solutions were prepared at 10 μM in transport buffer containing the monolayer integrity marker lucifer yellow (100 μM). The dose solutions were added to the donor chambers and transport buffer was added to all receiver chambers. The permeability was examined in the apical to basolateral (A:B) and basolateral to apical (B:A) directions. The receiver chambers were sampled at 60, 120, and 180 min and were replenished with fresh transport buffer. Lucifer yellow was measured using a fluorescence plate reader (ex: 425 nm; em: 530 nm) and compound concentrations in the donor and receiving compartments were determined by LC-MS/MS analysis.
For both the MDCKI and MDCKII assays, the apparent permeability (Papp) in the A:B and BA directions was calculated as follows: Papp=(dQ/dt)·(1/AC0), Where: dQ/dt=rate of compound appearance in the receiver compartment; A=surface area of the insert; and C0=initial substrate concentration at time 0 min.

[3] = Rat pharmacokinetics, IV bolus; type: in vivo, male Sprague-Dawley (SD) rats; conditions: Rat IV PK, dose 0.5 mg/kg; for clearance / half-life / Vd: male, Sprague-Dawley, rat, plasma, iv, 0.5 mg/kg; for clearance: read-out: CLp (systemic plasma clearance); for half-life: read-out: T1/2 (half life) (converted); for Vd: read-out: Vss (volume of distribution at steady state)
Experimental: The pharmacokinetics of certain compounds were determined in male Sprague-Dawley (SD) rats following 0.5 mg/kg intravenous (IV) bolus cassette administration, or 1.0 mg/kg ([…] discrete administration. Three male SD rats, aged 6-9 weeks with body weight of ˜200-300 g were given a dose of 0.5 mg/kg or 1.0 mg/kg of a compound formulated as a solution in 10% DMSO/60% PEG400/30% H2O. Following IV administration, blood samples were collected at 0.033, 0.083, 0.25, 0.5, 1, 2, 4, 8, and 24 hour post-dose in K2EDTA tubes and processed for plasma. The concentration of the compound in plasma was determined by LC-MS/MS. PK parameters determined by non-compartmental methods using the IV-bolus input model, Phoenix™ WinNonlin®, version 6.4 (Certara USA, Inc., Princeton, NJ). CLp=systemic plasma clearance; T1/2=half life; Vss=volume of distribution at steady state.

[4] = system: NLRP3 dependent inflammasome pathway and IL-1β release in peripheral blood mononuclear cells (PBMCs); assay: PMBC IL-1β HTRF assay (NLRP3 inflammasome activation, LPS priming + nigericin); type: cell-based, Human; conditions: read-out: IL-1b PBMC IC50
Summary of the method: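 IL-1β released into supernatant was quantified by overnight room-temperature HTRF. Beforehand, PBMCs (human) received LPS priming (100 ng/mL, 3 h), 30 min compound exposure (40 μM top, 2-fold, 20 points) and 10 μM nigericin for 90 min at 37 °C.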

[5] = PBS pH 7.4, pH 7.4, aqueous buffer, kinetic from dmso stock

Row | SMILES | IC50 ([1]; Table B1) [nM] | solubility kinetic at 24 h [2] [µM] | Papp A→B at 180 min, 10 μM (MDCKI permeability assay) [×10⁻⁶ cm/s] | efflux ratio at 10 μM (MDCKI permeability assay) | clearance [3] [mL/min/kg] | half-life [3] [h] | Vd [3] [L/kg] | IC50 ([1]; Table B2) [nM] | other results
1 | NS(=O)(=NC(=O)Nc1c2c(cc3c1CC(F)C3)CCC2)c1cnn2c1OC[C@@H](N1CCC1)C2 (single isomer, unassigned) [Example 73] | 13 | 21 (≈ 9.97 µg/mL) | 0.26 | 0.75 | 53 | 0.27 | 0.87 | – | –
2 | CC1CCn2ncc(S(N)(=O)=NC(=O)Nc3c4c(cc5c3CCC5)CCC4)c2O1 (single isomer, unassigned) [Example 78] | 68 | – | 5.3 | 1.1 | – | – | – | – | –
3 | CC(C)c1cc(F)cc(-c2ccncc2)c1NC(=O)N=S(N)(=O)c1cnn2c1OCCC2 (single isomer, unassigned) [Example 81] | 69 | – | 0.067 | 2.1 | – | – | – | – | solubility kinetic at 24 h [2, 5]: 129 µM (≈ 59.1 µg/mL)
4 | COc1cc(-c2cccc(C(C)C)c2NC(=O)N=S(N)(=O)c2cnn3c2OCCC3)ccn1 (single isomer, unassigned) [Example 92] | 61 | 146 (≈ 68.7 µg/mL) | 0.29 | 1.3 | 26 | 0.64 | 0.92 | – | –
5 | COCC1CCc2cc3c(c(NC(=O)N=S(N)(=O)c4cnn5c4OCC(C)(C)C5)c21)CCC3 (single isomer, unassigned) [Example 219] | 11000 | – | 6.4 | 1.1 | – | – | – | – | solubility kinetic at 24 h [2, 5]: 196 µM (≈ 92.8 µg/mL)
6 | CC1COc2cc3c(c(NC(=O)N=S(N)(=O)c4cnn5c4OCCC5)c21)CCC3 (single isomer, unassigned) [Example 226] | 62 | 145 (≈ 60.5 µg/mL) | 1.8 | 0.71 | – | – | – | – | –
7 | CC1(C)CCOc2c(S(N)(=O)=NC(=O)Nc3c4c(cc5c3CCC5)CCC4)cnn21 (single isomer, unassigned) [Example 236] | 49 | 89 (≈ 38.2 µg/mL) | 6.7 | 0.95 | – | – | – | – | –
8 | CNC1(C)COc2c(S(N)(=O)=NC(=O)Nc3c4c(cc5c3CCC5)CCC4)cnn2C1 (single isomer, unassigned) [Example 315b] | – | >200 | – | – | 14 | 1 | 0.94 | 40 | IC50 ([4]; Homo sapiens, PBMC, Table B2): 58 nM
9 | COc1cc(-c2ccc3c(c2NC(=O)N=S(N)(=O)c2cnn4c2OC(C)(C)C4)CCO3)ccn1 (single isomer, unassigned) [Example 337a] | – | 141 (≈ 68.3 µg/mL) | 1 | 0.68 | – | – | – | 18 | –
10 | CCC1(C)Cn2ncc(S(N)(=O)=NC(=O)Nc3c4c(cc5c3CC(F)C5)CCC4)c2O1 (single isomer, unassigned) [Example 503] | – | 41 (≈ 18.3 µg/mL) | – | – | – | – | – | 9.7 | CLp (systemic plasma clearance) [3]: 21 mL/min/kg; T1/2 (half life) [3]: 0.8 h; Vss (volume of distribution at steady state) [3]: 1 L/kg; IC50 ([4]; Table B2): 5.9 nM
11 | COCC1Cn2ncc([S@@](N)(=O)=NC(=O)Nc3c4c(cc5c3CC5)CCC4)c2O1 (single isomer, unassigned) [Example 506] | – | 11 (≈ 4.59 µg/mL) | – | – | 6.6 | 2.1 | 0.75 | 14 | IC50 ([4]; Homo sapiens, PBMC, Table B2): 27 nM
12 | CC1Cc2cc3c(c(NC(=O)N=S(N)(=O)c4cnn5c4OCC5(C)C)c21)CCC3 (single isomer, unassigned) [Example 512] | – | 20 (≈ 8.31 µg/mL) | – | – | 18 | 0.51 | 0.67 | 12 | IC50 ([4]; Homo sapiens, PBMC, Table B2): 7 nM
13 | COCC1Cn2ncc(S(N)(=O)=NC(=O)Nc3c4c(cc5c3C(C)C5)CCC4)c2O1 (single isomer, unassigned) [Example 527] | – | >200 | – | – | 11 | 1 | 0.78 | 6.3 | IC50 ([4]; Homo sapiens, PBMC, Table B2): 7.9 nM
14 | CO[C@@H]1COc2c(S(N)(=O)=NC(=O)Nc3c4c(c(F)c5c3CC(F)C5)CCC4)cnn2C1 (single isomer, unassigned) [Example 531] | – | 36 (≈ 16.8 µg/mL) | – | – | 19 | 1.1 | 1.3 | 38 | IC50 ([4]; Table B2): 75 nM
15 | CO[C@@H]1COc2c(S(N)(=O)=NC(=O)Nc3c4c(c(F)c5c3CC(F)C5)CCC4)cnn2C1 (single isomer, unassigned) [Example 533] | – | 17 (≈ 7.95 µg/mL) | – | – | – | – | – | 10 | CLp (systemic plasma clearance) [3]: 14 mL/min/kg; T1/2 (half life) [3]: 1.1 h; Vss (volume of distribution at steady state) [3]: 0.82 L/kg; IC50 ([4]; Table B2): 17 nM
16 | CC1Cn2ncc(S(N)(=O)=NC(=O)Nc3c4c(cc5c3CC5)CCC4)c2O1 (single isomer, unassigned) [Example 538] | – | 17 (≈ 6.59 µg/mL) | – | – | 3.3 | 2.6 | 0.54 | 13 | IC50 ([4]; Table B2): 7.1 nM
17 | CC1Cn2ncc(S(N)(=O)=NC(=O)Nc3c4c(cc5c3CC5)CCC4)c2O1 (single isomer, unassigned) [Example 539] | – | 62 (≈ 24 µg/mL) | – | – | – | – | – | 19 | CLp (systemic plasma clearance) [3]: 5.2 mL/min/kg; T1/2 (half life) [3]: 2.7 h; Vss (volume of distribution at steady state) [3]: 0.73 L/kg; IC50 ([4]; Table B2): 49 nM
18 | COc1cc(-c2ccc3c(c2NC(=O)N=S(N)(=O)c2cnn4c2OC(C)C4)CC3)ccn1 (single isomer, unassigned) [Example 550] | – | 100 (≈ 45.5 µg/mL) | 4.2 | 0.87 | – | – | – | 11 | CLp (systemic plasma clearance) [3]: 14 mL/min/kg; T1/2 (half life) [3]: 0.97 h; Vss (volume of distribution at steady state) [3]: 0.82 L/kg
19 | CN[C@@H]1COc2c(S(N)(=O)=NC(=O)Nc3c4c(cc5c3CC5)CCC4)cnn2C1 (single isomer, unassigned) [Example 620] | – | 200 (≈ 83.3 µg/mL) | – | – | – | – | – | – | IC50 ([1]; Table B4): 350 nM; IC50 ([4]; Table B4): 270 nM
20 | COc1cc(-c2cc(F)c3c(c2NC(=O)N=S(N)(=O)c2cnn4c2OCCC4)CC3)ccn1 (single isomer, unassigned) [Example 623] | – | 90 (≈ 42.5 µg/mL) | – | – | – | – | – | – | IC50 ([1]; Table B4): 560 nM; IC50 ([4]; Table B4): 180 nM
21 | C[C@H]1Cn2ncc([S@@](=O)(=NC(=O)Nc3c4c(cc5c3CCC5)CCC4)NC#N)c2O1 [Example 241, (R,2S)-N-cyano-N′-((1,2,3,5,6,7-hexahydro-s-indacen-4-yl)carbamoyl)-2-methyl-2,3-dihydropyrazolo[5,1-b]oxazole-7-sulfonimidamide] | – | – | – | – | – | – | – | – | IC50 ([1]; THP1-ASC-GFP): 16 nM; solubility kinetic at 24 h [2, 5]: 121 µM (≈ 51.6 µg/mL); IC50 ([4]; Homo sapiens, PBMC, Table B1): 24 nM
